Test results from the NIST ThermoML archive (doi:10.1021/je900470r).
± gives the expanded uncertainty stated by the source.

Key:
[1] = Liquid; for mass density: 298.15 K, 101.33 kPa
[2] = refractive index (Na D-line) (dimensionless); conditions: 298.15 K; 101.33 kPa; Liquid; Standard Abbe refractometry

mass density [1]	refractive index [2]	vapor or sublimation pressure ([1]; 418.69 K)	vapor or sublimation pressure ([1]; 351.46 K)	Structure (SMILES)	vapor or sublimation pressure ([1]; 352.68 K)
780.75 ± 0.24 kg/m3	1.3754 ± 0.0005	–	–	CC(C)O [propan-2-ol]	–
870.88 ± 0.48 kg/m3	1.3992 ± 0.0005	101.3 ± 0.3 kPa	–	CCCCOC(=O)CC [butyl propanoate]	–
786.47 ± 0.5 kg/m3	1.3594 ± 0.0005	–	101.3 ± 0.2 kPa	CCO [ethanol]	–

Structure (SMILES)	mass density [1]	refractive index [2]	vapor or sublimation pressure ([1]; 418.69 K)	vapor or sublimation pressure ([1]; 351.46 K)	vapor or sublimation pressure ([1]; 352.68 K)
CCC(C)=O [butanone]	799.62 ± 0.23 kg/m3	1.3761 ± 0.0005	–	–	101.3 ± 0.2 kPa
